In patent US10406086B2, “Moisturizer and cosmetic including the same” (AJINOMOTO CO., INC., priority 2015, dated 2019):
Like-named read-outs stand apart in the source and are kept apart here.

Tests used:
[1] = Moisture absorption/retention test; assay type: physicochemical; settings: for Increased weight ratio after 7 days at 35% RH (%) (B): following 65% RH; for (B)/(A) × 100(%): ratio of weight increase at 35% RH to that at 65% RH; for moisturizing power: compared with glycerol and sorbitol
Excerpt: About 1 g of each compound was precisely weighed in a weighing bottle and the weighed samples were placed in a constant-temperature and constant-humidity chamber (LH-30-10, manufactured by NAGANO SCIENCE CO, LTD.) in which the humidity was set to 65% RH to measure a weight increase ratio (A) after 7 days. Subsequently, the same samples were placed in the constant-temperature and constant-humidity chamber in which the humidity was set to 35% RH to measure a weight increase ratio (B) after 7 days. It can be considered that, as the ratio of (B) to (A) becomes higher, more moisture can be retained even when the environment becomes low humidity and thus that the compound having the higher value of the ratio can be considered as a compound having higher moisturizing power.

[2] = test system: Human normal epidermal keratinocytes NHEK (NB); test: Cytotoxicity test (Neutral Red, cell survival rate); assay type: cell-based; settings: 500 μM, 24 hours; for Cell survival rate (%): relative to light absorbance of the control
Experimental: Human normal epidermal keratinocytes NHEK (NB) (manufactured by KURABO INDUSTRIES LTD.) were precultured with HuMedia-KG2 (manufactured by KURABO INDUSTRIES LTD.) and the precultured human normal epidermal keratinocytes were adjusted in a concentration of 15×10^4 cells/mL. After adjusting the concentration, 2 mL of the culture solution (that is, 30×10^4 cells/well) was poured to a plate having 6 wells and the poured culture solution was cultivated for 1 day. Samples (lauroyl-valine (Example 25: C12Val), decanoyl-valine (Example 26: C10Val), octanoyl-valine (Example 27: C8Val), hexanoyl-valine (Example 28: C6Val), butanoyl-valine (Example 29: C4Val), and acetyl-valine (Example 30: C2Val)) were added to the wells so that each of the samples has the concentration illustrated in respective graphs and the added samples were reacted for 24 hours. Thereafter, the culture medium was discarded and replaced with 2 mL/well of Neutral Red solution. The resultant sample was further cultured for 2 hours. As the Neutral Red solution, a solution prepared by diluting Neutral Red (manufactured by KURABO INDUSTRIES LTD.) with HuMedia-KG2 culture medium/normal saline solution (2:1) to 1/100 was used. The cells stained with the Neutral Red solution were washed with PBS (-) one time, thereafter fixed by 1.5 mL/well of 1% CaCl2/1% formalin solution, extracted by adding 1.5 mL/well of 1% acetic acid/50% ethanol solution at room temperature for 20 minutes. The light absorbance of the resultant sample was measured using a plate reader at 540/630 nm.
The following evaluation was carried out depending on the cell survival rates. The results are listed in Table 4 and illustrated in FIG. 6.

filaggrin gene = test: Filaggrin gene expression test by acyl valines or acyl alanines (real time PCR, 24 hours); assay type: cell-based; settings: Homo sapiens
Experimental: Human normal epidermal keratinocytes NHEK (NB) (manufactured by KURABO INDUSTRIES LTD.) were precultured with HuMedia-KG2 (manufactured by KURABO INDUSTRIES LTD.) and the precultured human normal epidermal keratinocytes were adjusted in a concentration of 15×10^4 cells/mL. After adjusting the concentration, 2 mL of the culture solution (that is, 30×10^4 cells/well) was poured to a plate having 6 wells and the poured culture solution was cultivated for 1 day. […] C12Ala), decanoyl-alanine (Example 21: C10Ala), octanoyl-alanine (Example 22: C8Ala), hexanoyl-alanine (Example 23: C6Ala), and butanoyl-alanine (Example 24: C4Ala)) were added to the wells so that each of the samples has the concentration illustrated in respective graphs and the added samples were reacted for 24 hours. After the reaction, entire RNA was extracted from the cells and subjected to reverse transcription. The amplified amounts of the target gene (filaggrin) were measured by real time PCR (n=2). […] GAPDH was used as a corrected gene. Calculation was carried out using a comparative CT method. TaqMan (registered trademark) Gene Expression was used as a primer and a probe and FAM was used as a fluorescent dye. The following evaluation was carried out depending on the amplified amounts. The results are listed in Table 2 and 3 and illustrated in FIGS. 4 and 5.

[3] = 24 hours, NHEK (NB), control = 100%, read-out: Amplified amount (%)
[4] = 24 hours, NHEK (NB), read-out: Evaluation (amplified amount)
[5] = 10 μM, 24 hours, NHEK (NB), control = 100%, read-out: Amplified amount (%)
[6] = 10 μM, 24 hours, NHEK (NB), read-out: Evaluation (amplified amount)

Compound	Evaluation (cell survival rate) [2]	Cell survival rate (%) [2] [%]	activity at 500 µM (filaggrin gene; [3]) [%]	activity at 500 µM (filaggrin gene; [4]) [%]	also measured
OCC(O)CO [Comparative Example 3, Glycerol, reference compound]					Increased weight ratio after 7 days at 35% RH (%) (B) [1]: 13.2%; Increased weight Ratio after 7 days at 65% RH (%) (A) [1]: 48.1%; (B)/(A) × 100(%) [1]: 27.4%
CCCCCCCC(=O)N[C@H](C(=O)[O-])C(C)C.[Na+] [Example 12, N-octanoyl-L-valine sodium salt]					Increased weight ratio after 7 days at 35% RH (%) (B) [1]: 8.4%; Increased weight Ratio after 7 days at 65% RH (%) (A) [1]: 25.4%; moisturizing power [1]: high moisturizing power; (B)/(A) × 100(%) [1]: 33.2%
CCCCCCCC(=O)N[C@H](C(=O)O)C(C)C [Example 16, octanoyl-valine]	A (99% or higher)	100	302	> 200	
CCCCCCCCCCCC(=O)N[C@@H](C)C(=O)O [Example 20, lauroyl-alanine]					activity at 10 µM (filaggrin gene; NHEK, 24 h, read-out: Amplified amount (%)): 128%; activity at 10 µM (filaggrin gene; NHEK, 24 h, read-out: Evaluation (amplified amount)): 100 to 200%
CCCCCC(=O)N[C@H](C(=O)O)C(C)C [Example 17, hexanoyl-valine]	A (99% or higher)	99	112	100 to 200	
CCCC(=O)N[C@H](C(=O)O)C(C)C [Example 18, butanoyl-valine]	A (99% or higher)	102	126	100 to 200	
CCCCCCCC(=O)N[C@@H](C)C(=O)O [Example 22, octanoyl-alanine]			256	> 200	
CCCCCCCC(=O)N[C@@H](C)C(=O)[O-].[Na+] [Example 13, N-octanoyl-L-alanine sodium salt]					Increased weight ratio after 7 days at 35% RH (%) (B) [1]: 10.6%; Increased weight Ratio after 7 days at 65% RH (%) (A) [1]: 29.6%; moisturizing power [1]: high moisturizing power; (B)/(A) × 100(%) [1]: 35.9%
CC(=O)N[C@H](C(=O)O)C(C)C [Example 19, acetyl-valine]	A (99% or higher)	105	141	100 to 200	
OC[C@@H](O)[C@@H](O)[C@H](O)[C@@H](O)CO [Comparative Example 4, Sorbitol, reference compound]					Increased weight ratio after 7 days at 35% RH (%) (B) [1]: 0.5%; Increased weight Ratio after 7 days at 65% RH (%) (A) [1]: 4.2%; (B)/(A) × 100(%) [1]: 12.0%
CCCCCCCCCC(=O)N[C@@H](C)C(=O)O [Example 21, decanoyl-alanine]					activity at 10 µM (filaggrin gene; [5]): 117%; activity at 10 µM (filaggrin gene; [6]): 100 to 200%
CCCC(=O)N[C@@H](C)C(=O)O [Example 24, butanoyl-alanine]			162	100 to 200	
CCCCCCCCCCCC(=O)N[C@H](C(=O)O)C(C)C [Example 14, lauroyl-valine]	D (Lower than 50%)	3			cytotoxicity ([2]; in words): high; activity at 10 µM (filaggrin gene; [5]): 200%; activity at 10 µM (filaggrin gene; [6]): > 200%
CCCCCC(=O)N[C@@H](C)C(=O)O [Example 23, hexanoyl-alanine]			125	100 to 200	
CCCCCCCCCC(=O)N[C@H](C(=O)O)C(C)C [Example 15, decanoyl-valine]	B (75% or higher and lower than 99%)	75			activity at 10 µM (filaggrin gene; [5]): 171%; activity at 10 µM (filaggrin gene; [6]): 100 to 200%
